US6365769B1, “Perfluoroalkyl halides and derivatives” (3M Innovative Properties Company, priority 1991, dated 2002)

Key:
Format in all cases: physicochemical
[1] = Surface tension of the aqueous solution, Du Nouy tensiometer; conditions: for SURFACE TENSION (dynes/cm) 500 ppm: 500 ppm in water; for SURFACE TENSION (dynes/cm) 100 ppm: 100 ppm in water
Experimental: (§1) The materials of the invention were diluted in water to 0.05% (500 ppm) and/or 0.01% (100 ppm), and the surface tension of the aqueous solution was measured using a Du Nouy tensiometer. Foam height was measured as volume in a graduated cylinder. Half-life time (t ½) is the time for half the liquid present in the foam to drain from the foam. The foam was generated by a wire wisk in a Hobart mixer. Thus, 200 mL of surfactant solution to be tested is placed in a bowl of Hobart Model N-50 mixer equipped with a wire wisk stirrer and stirred for 3 minutes at medium speed (setting 2=300 rpm). The foam produced was immediately transferred to a 4000 mL graduated cylinder for measuring foam height and half-life time.

[2] = Foam height, foam generated in Hobart mixer; conditions: 500 ppm in water; 200 mL solution stirred 3 minutes
Experimental: as §1

[3] = Foam half-life time (drainage of half the liquid); conditions: 500 ppm in water
Experimental: as §1

| Compound | SURFACE TENSION (dynes/cm) 500 ppm [1] | SURFACE TENSION (dynes/cm) 100 ppm [1] | further results |
| --- | --- | --- | --- |
| CC(C)(CNC(=O)CCSCCC(F)(F)C(F)(F)C(F)(F)C(F)(F)C(F)(F)C(F)(F)C(F)(F)C(F)(F)F)CS(=O)(=O)[O-].[K+] [Example 47, C8F17CH2CH2SCH2CH2C(O)NHCH2C(CH3)2CH2SO3K] | 19.0 dynes/cm | 24.0 dynes/cm | – |
| O=C(CC(C(=O)OCCC(F)(F)C(F)(F)C(F)(F)C(F)(F)F)S(=O)(=O)[O-])OCCC(F)(F)C(F)(F)C(F)(F)C(F)(F)F.[Na+] (centres unmarked) [C14, reference compound] | 21.7 dynes/cm | 30.5 dynes/cm | – |
| N.O=S(=O)(O)OCCC(F)(F)C(F)(F)C(F)(F)C(F)(F)C(F)(F)C(F)(F)C(F)(F)C(F)(F)F [Example 43, C8F17CH2CH2OSO3NH4] | – | – | FOAM HEIGHT (VOLUME) [2]: 400; HALF-LIFE TIME (SEC) / t ½ [3]: <30 s; SURFACE TENSION (dyne/cm) 500 ppm ([1]; 500 ppm as printed (second surface tension column of Tables 12, 14)): 22.8 dyne/cm; SURFACE TENSION (dyne/cm) 500 ppm ([1]; 500 ppm in water (first surface tension column of Tables 12, 14)): 19.5 dyne/cm |
| O=C(CC(C(=O)OCCC(F)(F)C(F)(F)C(F)(F)C(F)(F)F)S(=O)(=O)[O-])OCCC(F)(F)C(F)(F)C(F)(F)C(F)(F)F.[Na+] (centres unmarked) [Example 45, C4F9CH2CH2OC(O)CH2CH(SO3Na)C(O)OCH2CH2C4F9] | 17.7 dynes/cm | 24.2 dynes/cm | – |

Now from value to compound, other results behind:

| SURFACE TENSION (dynes/cm) 500 ppm [1] | SURFACE TENSION (dynes/cm) 100 ppm [1] | Compound | further results |
| --- | --- | --- | --- |
| 17.5 dynes/cm | – | CCCCCCCCCC(O)C/[N+](C)=C/CCCS(=O)(=O)[O-] (centres unmarked) [Example 71] | – |
| 20.1 dynes/cm | 26.2 dynes/cm | CC(C)(CNC(=O)CCNCCNCCC(=O)OCCC(F)(F)C(F)(F)C(F)(F)C(F)(F)C(F)(F)C(F)(F)C(F)(F)C(F)(F)F)CS(=O)(=O)[O-].[K+] [Example 55, C8F17CH2CH2OC(O)CH2CH2NHCH2CH2NHCH2CH2C(O)NHCH2C(CH3)2CH2SO3K] | – |
| 23.1 dynes/cm | – | C8F17CH2CH2S(CH2CH2O)12(CH2CH(CH3)O)3H [Example 70] | – |
| 21.7 dynes/cm | – | C8F17C2H4O(C2H4O)nH [Example 69] | – |
| 19.9 dynes/cm | 21.3 dynes/cm | CCS(=O)(=O)[O-].CC[N+](C)(C)CCOC(=O)CCNCCNCCC(=O)OCCC(F)(F)C(F)(F)C(F)(F)C(F)(F)C(F)(F)C(F)(F)C(F)(F)C(F)(F)F [Example 61, [C8F17CH2CH2OC(O)CH2CH2NHCH2CH2NHCH2CH2C(O)OCH2CH2N^+(CH3)2CH2CH3] [CH3CH2SO^−3]] | – |
